How the values were obtained:
Jurkat cells = assay: Human leukaemia (Jurkat cells); format: cell-based; settings: 72 hours
Description: Overall, it may be seen that the series of compounds A and B are the best, so the effectiveness of these series against the development of leukaemia and liver cancer (Tables 9 and 10) was tested.

P19 cells = assay: NMDA-induced neuronal death in P19 cells; format: cell-based; settings: for Neuronal death (P19 cells) after treatment with NMDA: NMDA alone 100% death, control without NMDA 0%, negative values = proliferation
[1] = test system: Spontaneously Hypertensive Rats (SHR); assay: Blood pressure of SHR rats (cuff-tail method); format: in vivo, rat; settings: 200 mg/kg day p.o., 30 days, before treatment 214 mmHg
In short: (§1)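 SHR rats dosed orally at 200 mg/kg day for 30 days against water vehicle. At study end, blood pressure taken non-invasively by tail cuff and apoA-I assessed as gene expression by RT-PCR.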

[2] = Lamellar-to-hexagonal (HII) transition temperature in DEPE model membranes by Differential Scanning Calorimetry; format: physicochemical; settings: for Temperature of lamellar-to-hexagonal transition: DEPE membranes, DEPE:D-PUFA 10:1 (mol:mol); for Transition temperature (lamellar to HII): DEPE (4 mM), 200 μM compound, series A, control 64.5
In short: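 Lamellar-to-HII transition temperature of DEPE membranes measured by differential scanning calorimetry, with DEPE:fatty acid at 10:1 mol:mol. Control membranes contained no fatty acid.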

[3] = test system: brain cancer cell (glioma) U118; assay: Brain cancer (glioma) U118 cell growth; format: cell-based; settings: 72 hours of incubation
In short: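 Cell counts taken with compound, mean of three independent experiments. Applies to U118.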

α-synuclein = assay: Expression of α-synuclein in neuronal cultures (cells P19); format: cell-based; settings: untreated cells 100%
[4] = test system: breast cancer cells MDA-MB-231; assay: Growth of breast cancer cells MDA-MB-231; format: cell-based; settings: 72 hours of incubation
In short: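 Cell counts taken with compound, mean of three independent experiments. Applies to MDA-MB-231.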

COX-2 = assay: Expression of COX-2 in LPS-stimulated monocytes in culture; format: cell-based, human; settings: positive control with LPS 100%
In short: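 Cultured monocytes stimulated with LPS; COX-2 protein level expressed as % inhibition relative to the LPS-only positive control (100%).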

lung cancer cells A549 = assay: Growth of lung cancer cells A549 (IC50); format: cell-based, human; settings: 72 hours of incubation
In short: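 Cell counts taken with compound, mean of three independent experiments. Applies to A549 (RPMI 1640, 10% FBS, 37 °C, 5% CO2).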

[5] = test system: apolipoprotein AI (apoA-I); assay: Levels of apoA-I in SHR rats (RT-PCR); format: in vivo, rat; settings: 200 mg/kg day p.o., 30 days, before treatment 100%
In short: as §1

[6] = Serum cholesterol, triglycerides and glucose in SHR rats (colorimetric); format: in vivo, rat; settings: 200 mg/kg daily p.o., 28 days, untreated rats 100%
In short: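 SHR rats dosed p.o. at 200 mg/kg daily for 28 days; serum cholesterol, triglycerides and glucose measured colorimetrically. Values given as percent of untreated control rats, set at 100%.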

## CCC=CCC=CCC=CCCCCCCC(O)C(=O)[O-].[Na+] (centres unmarked) [183B1]
Jurkat cells
  IC50: 196 µM
P19 cells
  Neuronal death (P19 cells) after treatment with NMDA: −58%
[1]
  Blood pressure: 197 mm Hg
[2]
  Temperature of lamellar-to-hexagonal transition: 51.9 °C
[3]
  IC50: 202 µM
α-synuclein
  Expression of α-synuclein: 43%
[4]
  IC50: 267 µM
COX-2
  COX-2 protein levels (expression), percentages of inhibition compared to positive control: 33%
Lung cancer cells A549
  IC50: 195 µM
[5]
  Levels of apoA-I: 151%
[6]
  Cholesterol in serum (top number): 75%
  Glucose in serum (bottom number): 84%
  Triglycerides in serum (central number): 66%

## CCC=CCC=CCC=CCC=CCC=CCCC(O)C(=O)O (centres unmarked) [205A1, 2-hydroxy-5,8,11,14,17-eicosapentaenoic acid]
Jurkat cells; Homo sapiens, Jurkat
  IC50: 376 µM
P19 cells
  Neuronal death (P19 cells) after treatment with NMDA: −50%
[1]
  Blood pressure: 193 mm Hg
[2]
  Transition temperature (lamellar to HII): 47.9 °C
[3]
  IC50: 400 µM
α-synuclein
  Expression of α-synuclein: 35%
[4]; Homo sapiens, MDA-MB-231
  IC50: 390 µM
COX-2
  COX-2 protein levels (expression), percentages of inhibition compared to positive control: 31%
Lung cancer cells A549; Homo sapiens, A549
  IC50: 394 µM
[5]
  Levels of apoA-I: 346%
[6]
  Cholesterol in serum (top number): 69%
  Glucose in serum (bottom number): 82%
  Triglycerides in serum (central number): 74%

## CCC=CCC=CCC=CCC=CCC=CCCC(O)C(=O)[O-].[Na+] (centres unmarked) [205B1]
Jurkat cells
  IC50: 294 µM
P19 cells
  Neuronal death (P19 cells) after treatment with NMDA: −52%
[1]
  Blood pressure: 187 mm Hg
[2]
  Temperature of lamellar-to-hexagonal transition: 48.3 °C
[3]
  IC50: 391 µM
α-synuclein
  Expression of α-synuclein: 41%
[4]
  IC50: 208 µM
COX-2
  COX-2 protein levels (expression), percentages of inhibition compared to positive control: 39%
Lung cancer cells A549
  IC50: 202 µM
[5]
  Levels of apoA-I: 264%
[6]
  Cholesterol in serum (top number): 58%
  Glucose in serum (bottom number): 87%
  Triglycerides in serum (central number): 65%

## CCC=CCC=CCC=CCC=CCC=CCC=CCC(O)C(=O)O (centres unmarked) [226A1]
Jurkat cells
  IC50: 85 µM
P19 cells
  Neuronal death (P19 cells) after treatment with NMDA: −230%
P19 cells; P19 cells
  Increase in cell survival in the presence of NMDA (FIG. 4A): more than 200%
[1]
  Blood pressure: 194 mm Hg
[2]
  Transition temperature (lamellar to HII): 44.4 °C
[3]
  IC50: 214 µM
α-synuclein
  Expression of α-synuclein: 23%
[4]
  IC50: 187 µM
COX-2
  COX-2 protein levels (expression), percentages of inhibition compared to positive control: 23%
Lung cancer cells A549
  IC50: 195 µM
[5]
  Levels of apoA-I: 324%
[6]
  Cholesterol in serum (top number): 64%
  Glucose in serum (bottom number): 79%
  Triglycerides in serum (central number): 71%
